{"source": "patent US20140017223A1", "about": "“Pharmaceutical Compositions Comprising A Pancreatic Enzyme Preparation With Viral Infectivity Reduced Below A Significant Level And Methods Of Preparing And Using The Same” (Aptalis Pharma Canada Inc., priority 2010, published 2014)", "type_in_all_cases": "cell-based, porcine parvovirus (PPV)", "key": {"PPV [1]": {"tested_on": "PPV", "assay": "Inactivation of PPV by BPL (30 min, 25° C.), BPL then inactivated with sodium thiosulfate (Example 9)", "conditions": "thiosulfate quench", "procedure": "4.5 g pancrelipase (PEP) powder was dissolved in 44 ml ice cold 100 mM Tris (pH=8.3) by frequently mixing a 50-ml plastic tube that was kept on ice most of the time except when shaking. The dissolved sample was spiked with 1 ml (2×0.5 ml) PPV stock (prepared at the Institut National de la Recherche Scientifique, Québec, Canada using standard protocols (Arella et al., Physicichemical properties, production, and purification of parvoviruses. 1990, In Tijssen, P. (ed.), CRC handbook of parvoviruses. Boca Raton, Fla.: CRC Press, 11-30)) 10^7 FFID50/ml; see Example 8 and Table 8) and was mixed for another 10 minutes.\nThree aliquots of the dissolved pancrelipase were transferred into tubes (A-C) and kept on ice while (A) no BPL—the control), (B) (0.4 vol % BPL), or (C) (0.8 vol % BPL) was added to them. After a brief mixing by a vortex machine, the tubes were incubated for 30 minutes at 25° C. At the end of the incubation, the tubes were transferred on to ice and immediately four aliquots were transferred from each experimental condition into new tubes (a-d). These tubes were placed into the mixture of acetone/dry ice for fast freezing. Later, the samples were stored at −80° C.\nFrom the remaining solutions, aliquots from each experiment (using triplicates) were diluted 100 times in cell culture medium containing sodium thiosulfate and supplemented with traces of chloroform. Samples were briefly mixed and kept at 4° C. for at least 6 hours before further dilution for the FFID50 infectivity determination. See Example 9.\nThe experiment above was repeated two more times (altogether: experiments 1-3).\nTable 9 presents the result of the inactivation of PPV by BPL for 30 min at 25° C. and subsequent inactivation of the BPL by incubating the BPL-containing PEP solutions with sodium thiosulfate for at least 6 hours at 4° C. As discussed above, three independent experiments with BPL inactivation after PPV spiking were followed by inactivation of BPL by sodium thiosulfate (3 parallels for each experiment)."}, "PPV [2]": {"tested_on": "PPV", "assay": "Kinetics of PPV inactivation in PEP samples with 0.4% BPL at 4° C. (Example 7)", "conditions": "PEP conc. 100 mg/mL", "procedure": "Samples prepared in the same way as described in Example 1 were treated at 4° C. in an aqueous media (i.e. mixture of water and isopropyl alcohol)."}, "PPV [3]": {"tested_on": "PPV", "assay": "Inactivation of spiked PPV in PEP by BPL, PPV titered by chloroform/PEG method (Example 3)", "source_text": "U.S. Patent Publication No. 2009/0226414, incorporated by reference herein, provides a reproducible and efficient method for detecting an infectious non-enveloped virus, such as PPV, in an enzyme preparation (e.g., a pancreatic enzyme preparation) by treating the preparation prior to determining its viral infectivity. This method preserves the infectious non-enveloped virus while substantially eliminating the toxic enzyme materials from the PEP samples.\nThe steps of this method include:\n(a) extracting a sample of the preparation at least two times with chloroform to produce a clarified sample with an upper phase and a lower phase;\n(b) precipitating an aliquot of the upper phase from step (a) with polyethylene glycol (PEG);\n(c) suspending the product from step (b) in a buffer;\n(d) precipitating the product from step (c) with PEG;\n(e) suspending the product from step (d) in a solution;\n(f) removing excess PEG and fine particles from product (e) by chloroform, this allows (i) in step (e) the suspending in a 10-times smaller volume to increase the overall sensitivity up to 10-fold; and (ii) removal of the remaining interfering materials from the least diluted steps of the most toxic samples; and\n(g) detecting the presence of or measuring the amount of infectious virus in the solution.\nPancrelipase powders from 2 different lots were each dissolved in 100 mM Tris, pH=8.3, at a concentration of 100 mg/ml. Two ml non-purified PPV viral stock (prepared using standard protocols (Arella et al., Physicichemical properties, production, and purification of parvoviruses. 1990, In Tijssen, P. (ed.), CRC handbook of parvoviruses. Boca Raton, Fla.: CRC Press, 11-30)) were added to 38 ml of the pancrelipase solution. The virus was mixed with the PEP using slow shaking at room temperature for one day. Aliquots were taken from the PPV-spiked pancrelipase stocks and each was incubated with different concentrations of BPL (available from Sigma-Aldrich, St. Louis, Mo.) (except the control) for 48 hours at room temperature (20° C.). […] Determination of the FFID50 was performed using the fluorescence assay as described in the PPV FFID-infectivity assay of U.S. Patent Publication No. 2009/0226414.\nThe experiment described in Example 1 was repeated except PEG-purified PPV was used for the infectivity assay as described in U.S. Patent Publication No. 2009/0226414."}}, "note": "Where “and” joins values, the source holds several entries; their conditions need not be identical. Equal values may be shown once."}
{"smiles": "O=C1CCO1", "note": "[BPL, Beta-propiolactone]", "values": [{"measurement": "Mean Infectivity ± SD", "setting": "PPV [1]; 0.4% BPL, 30 min 25° C.", "value": "2.63 ± 6.86 × 10^4 FFID50/g"}, {"measurement": "PPV Titer reduction", "setting": "PPV [1]; 0.4% BPL, 30 min 25° C.", "value": "0.65 × 10^2 FFID50/g"}, {"measurement": "Average Results per Sample", "setting": "PPV [1]; 0.4% BPL, 30 min 25° C., experiments B1-B3", "value": "2.32 × 10^4 FFID50/g and 2.15 × 10^4 FFID50/g and 3.42 × 10^4 FFID50/g"}, {"measurement": "Results (PPV infectivity, single determinations)", "setting": "PPV [1]; 0.4% BPL, 30 min 25° C., experiments B1-B3, 3 parallels each", "value": "2.50 × 10^4 FFID50/g and 1.98 × 10^4 FFID50/g and 3.14 × 10^4 FFID50/g and 3.96 × 10^4 FFID50/g"}, {"measurement": "Reduction of virus infectivity", "setting": "PPV [1]; 0.4 vol % BPL, room temperature, 30 minutes", "value": "more than 60 times"}, {"measurement": "Mean Infectivity ± SD", "setting": "PPV [1]; 0.8% BPL, 30 min 25° C.", "value": "5.25 ± 5.25 × 10^3 FFID50/g"}, {"measurement": "PPV Titer reduction", "setting": "PPV [1]; 0.8% BPL, 30 min 25° C.", "value": "0.31 × 10^4 FFID50/g"}, {"measurement": "Inactivation of PPV", "setting": "PPV [1]; 0.8% BPL, room temperature, 30 minutes", "value": "three magnitudes of order"}, {"measurement": "Average PPV titer (log reduction)", "setting": "PPV [2]; reaction time 15 min", "value": 1.1, "unit": "log"}, {"measurement": "Average PPV titer (log reduction)", "setting": "PPV [2]; reaction time 30 min", "value": 1.6, "unit": "log"}, {"measurement": "Average PPV titer (log reduction)", "setting": "PPV [2]; reaction time 45 min", "value": "2 log and 2.0 log"}, {"measurement": "Average PPV titer (log reduction)", "setting": "PPV [2]; reaction time 60 min", "value": 2.2, "unit": "log"}, {"measurement": "Average PPV titer (log reduction)", "setting": "PPV [2]; reaction time 720 min", "value": 4.8, "unit": "log"}, {"measurement": "PPV Titer reduction", "setting": "PPV [3]; PEP #1, 0.04% (v/v) BPL", "value": 10, "unit": "FFID50/g"}, {"measurement": "PPV Titer reduction", "setting": "PPV [3]; PEP #1, 0.10% (v/v) BPL", "value": 10, "unit": "FFID50/g"}, {"measurement": "PPV Titer reduction", "setting": "PPV [3]; PEP #1, 0.25% (v/v) BPL", "value": "10^5 FFID50/g"}, {"measurement": "PPV Titer reduction", "setting": "PPV [3]; PEP #2, 0.04% (v/v) BPL", "value": 10, "unit": "FFID50/g"}, {"measurement": "PPV Titer reduction", "setting": "PPV [3]; PEP #2, 0.10% (v/v) BPL", "value": "10^2 FFID50/g"}, {"measurement": "PPV Titer reduction", "setting": "PPV [3]; PEP #2, 0.25% (v/v) BPL", "value": "10^5 FFID50/g"}, {"measurement": "PPV Titer reduction", "setting": "PPV [3]; PEP #3, 0.04% (v/v) BPL", "value": 10, "unit": "FFID50/g"}, {"measurement": "PPV Titer reduction", "setting": "PPV [3]; PEP #3, 0.10% (v/v) BPL", "value": "10^2 FFID50/g"}, {"measurement": "PPV Titer reduction", "setting": "PPV [3]; PEP #3, 0.25% (v/v) BPL", "value": "10^5 FFID50/g"}, {"measurement": "PPV Titer reduction", "setting": "PPV [3]; PEP #4, 0.04% (v/v) BPL", "value": 10, "unit": "FFID50/g"}, {"measurement": "PPV Titer reduction", "setting": "PPV [3]; PEP #4, 0.10% (v/v) BPL", "value": "10^2 FFID50/g"}, {"measurement": "PPV Titer reduction", "setting": "PPV [3]; PEP #4, 0.25% (v/v) BPL", "value": "10^4 FFID50/g"}]}
